Measured values as given in patent US20030203850A1, “Transdifferentiation of pancreatic acinar cells” (McGill University, priority 2002, published 2003).
Ends that are not written are not given here.

System: β-cell mass
Assay: INGAP peptide administration to hamsters: extra-islet acinar-associated and total β-cell mass
Assay type: in vivo
Conditions: 250 μg twice daily intra-peritoneal, female Syrian hamsters
Procedure: Female Syrian hamsters, 8 weeks of age, were randomly allocated to receive daily intra-peritoneal injections of INGAP peptide (Ile-Gly-Leu-His-Asp-Pro-Ser-His-Gly-Thr-Leu-Pro-Asn-Gly-Ser) (250 μg twice daily) or an equivalent volume of saline for either 10 (saline n=10, INGAP n=15) or 30 (S n=10, I n=15) days. At the end of the study period, animals were sacrificed by bleeding, and the pancreata excised through a midline laparotomy incision, for morphologic and morphometric analysis.
Samples were embedded in paraffin wax and 4 μm-thick sections were cut. The sections were processed for routine histology and immunostained for insulin, CK19 (1:750, 1:100 respective antibody dilution, Dako Corp., Santa Barbara, Calif.), glucagon, somatostatin and pancreatic polypeptide (1:750 antibody dilution, Biogenex, San Ramon, Calif., USA), using the AB complex method (streptavidin-biotin horseradish peroxidase complex, Dako Corp., Santa Barbara, Calif.), as described previously (22). A rabbit PDX-1 antibody directed against the NH2-terminus of the frog homologue of the protein encoded by the pdx-1 gene was used as the primary antibody (1:750 dilution; a gift from C. Wright, Vanderbilt University). Slides were countered stained with Harris hematoxylin (Sigma, St. Louis, Mo.).
Comparison between groups was done using 1-way ANOVA, 2-way ANOVA with post hoc one-tail t-test or X^2 analysis where appropriate. Data are presented as mean±SEM. Significance was accepted at the 5% level.
To determine β-cell mass (mg/pancreas), each gland was sectioned along its longitudinal axis to avoid any sampling bias due to regional variation in islet distribution and cell composition. Islet cross-sectional areas were traced manually with the aid of an Olympus BX60 microscope connected by video camera to a computer equipped with Image-pro Plus software version 4.0 (23). The total β-cell mass was calculated by a stereological equation, as described previously (22).
β-cell neogenesis and acinar-associated β-cell mass was analysed as described previously […]. Briefly, extra-islet acinar-associated β-cells/cell clusters were defined as insulin positive cells/cell clusters not associated with any other endocrine cells (α, δ, PP), completely surrounded by acinar tissue and a minimum of 100 μm from ductular tissue. The percent β-cell area being extra-islet acinar-associated was determined and multiplied by the weight of the excised organ to determine extra-islet acinar-associated β-cell mass.

Sequence: IGLHDPSHGTLPNGS [INGAP peptide]
- increase in extra-islet acinar-associated β-cell mass versus saline infused controls (10 days of treatment): 180%
- increase in total β-cell mass (10 days of treatment): 44%
- increase in total β-cell mass (30 days of treatment): 31%
- increase in extra-islet acinar-associated β-cell mass versus saline infused controls (30 days of treatment, p<0.05): 200%
